In assay [1] the target is T1, Signal transducer and activator of transcription 5A (Homo sapiens, UniProt P42229).
T1 sequence (P42229 whole entry): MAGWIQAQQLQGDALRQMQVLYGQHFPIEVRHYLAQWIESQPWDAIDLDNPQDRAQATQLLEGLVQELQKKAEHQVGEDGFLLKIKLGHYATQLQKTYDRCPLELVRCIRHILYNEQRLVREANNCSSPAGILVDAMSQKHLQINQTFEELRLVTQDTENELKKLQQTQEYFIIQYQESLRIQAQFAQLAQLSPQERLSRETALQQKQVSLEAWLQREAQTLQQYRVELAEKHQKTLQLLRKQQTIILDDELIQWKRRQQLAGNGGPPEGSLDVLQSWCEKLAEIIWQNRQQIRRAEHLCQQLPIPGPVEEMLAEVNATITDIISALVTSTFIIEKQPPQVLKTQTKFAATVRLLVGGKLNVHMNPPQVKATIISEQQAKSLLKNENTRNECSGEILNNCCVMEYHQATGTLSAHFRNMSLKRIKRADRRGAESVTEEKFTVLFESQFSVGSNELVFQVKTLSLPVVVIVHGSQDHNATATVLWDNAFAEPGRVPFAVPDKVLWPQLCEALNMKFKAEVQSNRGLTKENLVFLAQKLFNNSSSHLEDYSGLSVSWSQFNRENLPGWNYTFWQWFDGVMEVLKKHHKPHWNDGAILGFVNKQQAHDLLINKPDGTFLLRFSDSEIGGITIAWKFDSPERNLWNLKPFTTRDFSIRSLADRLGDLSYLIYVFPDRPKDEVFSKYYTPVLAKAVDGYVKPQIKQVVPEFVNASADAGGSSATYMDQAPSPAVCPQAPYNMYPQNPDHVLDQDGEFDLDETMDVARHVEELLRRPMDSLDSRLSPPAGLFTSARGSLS
As to the kind of experiment: Binding affinity to N-terminal 6his-tagged human STAT5A (136 to 705 residues) expressed in Escherichia coli BL21-DE3 rosetta cells assessed as inhibition constant by FP assay.

Assay [2] has as its target T1, Signal transducer and activator of transcription 5A. As to the kind of experiment: Induction of STAT5 degradation in human SKNO-1 cells measured for 18 hrs by Western blot analysis. The format is cell-based.
For assay [3], the target named is T2, Signal transducer and activator of transcription 5B (Homo sapiens, UniProt P51692).
T2 sequence (P51692 whole entry): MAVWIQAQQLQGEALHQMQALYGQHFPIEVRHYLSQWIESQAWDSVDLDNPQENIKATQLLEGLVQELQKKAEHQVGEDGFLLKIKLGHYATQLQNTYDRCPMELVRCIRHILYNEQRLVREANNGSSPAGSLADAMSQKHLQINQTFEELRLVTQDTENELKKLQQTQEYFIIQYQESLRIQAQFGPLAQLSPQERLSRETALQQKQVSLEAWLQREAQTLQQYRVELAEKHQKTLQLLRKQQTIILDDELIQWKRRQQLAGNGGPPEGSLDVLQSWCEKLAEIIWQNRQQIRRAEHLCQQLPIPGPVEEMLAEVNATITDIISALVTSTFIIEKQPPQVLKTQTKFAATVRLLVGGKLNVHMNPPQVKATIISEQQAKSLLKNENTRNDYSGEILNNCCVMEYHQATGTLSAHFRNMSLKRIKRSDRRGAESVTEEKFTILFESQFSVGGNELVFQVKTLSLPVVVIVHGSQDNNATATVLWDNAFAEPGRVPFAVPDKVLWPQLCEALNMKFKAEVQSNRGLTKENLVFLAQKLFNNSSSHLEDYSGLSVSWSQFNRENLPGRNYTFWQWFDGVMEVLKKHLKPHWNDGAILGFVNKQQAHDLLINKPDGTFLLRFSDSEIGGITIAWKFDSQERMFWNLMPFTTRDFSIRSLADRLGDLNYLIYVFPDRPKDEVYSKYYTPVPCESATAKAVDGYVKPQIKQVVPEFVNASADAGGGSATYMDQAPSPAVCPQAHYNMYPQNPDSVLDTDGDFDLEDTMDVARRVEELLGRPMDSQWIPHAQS
As to the kind of experiment: Binding affinity to STAT5B (unknown origin) assessed as inhibition constant by FP assay.

Assay [4] deals with T3, Signal transducer and activator of transcription 5A (Homo sapiens) (UniProt P42229).
T3 sequence (whole entry): T1 sequence (P42229 whole entry)
Briefly: Induction of STAT5 degradation in human SKNO-1 cells assessed as maximal degradation at 0.05 to 5 uM measured for 18 hrs by Western blot analysis relative to control. The format is cell-based. To be noted: dose 0.05-5 µM. A general note: In western blotting, separated proteins are transferred to a membrane and probed.

Assay [5] has as its target T4, Signal transducer and activator of transcription 6 (Homo sapiens, UniProt P42226).
T4 sequence (P42226 whole entry): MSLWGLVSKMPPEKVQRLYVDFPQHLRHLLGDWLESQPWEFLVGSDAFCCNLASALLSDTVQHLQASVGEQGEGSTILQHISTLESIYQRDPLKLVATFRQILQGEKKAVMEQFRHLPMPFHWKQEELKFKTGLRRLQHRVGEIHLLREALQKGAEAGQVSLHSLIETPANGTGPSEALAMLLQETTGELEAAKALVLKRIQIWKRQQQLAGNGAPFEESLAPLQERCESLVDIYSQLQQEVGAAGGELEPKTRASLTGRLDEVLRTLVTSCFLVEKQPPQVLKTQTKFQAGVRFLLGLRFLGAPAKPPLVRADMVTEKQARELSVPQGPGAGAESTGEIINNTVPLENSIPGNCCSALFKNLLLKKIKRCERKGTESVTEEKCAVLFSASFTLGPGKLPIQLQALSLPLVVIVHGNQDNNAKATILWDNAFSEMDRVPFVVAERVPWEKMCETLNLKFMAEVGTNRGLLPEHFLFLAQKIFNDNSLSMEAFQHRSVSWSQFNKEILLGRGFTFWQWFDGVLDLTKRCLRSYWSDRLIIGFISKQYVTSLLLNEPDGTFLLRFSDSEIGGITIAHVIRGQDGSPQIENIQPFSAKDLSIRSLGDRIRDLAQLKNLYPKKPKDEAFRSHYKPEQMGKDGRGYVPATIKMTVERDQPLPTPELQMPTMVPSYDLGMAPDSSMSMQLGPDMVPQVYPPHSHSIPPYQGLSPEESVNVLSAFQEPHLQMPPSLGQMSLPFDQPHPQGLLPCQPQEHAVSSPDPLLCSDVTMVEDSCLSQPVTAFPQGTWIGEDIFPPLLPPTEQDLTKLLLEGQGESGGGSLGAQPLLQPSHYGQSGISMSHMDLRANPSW
As to the kind of experiment: Induction of STAT6 degradation in human SKNO-1 cells measured for 18 hrs by Western blot analysis. It counts as cell-based.

The target in assay [6] is T4, Signal transducer and activator of transcription 6. Briefly: Binding affinity to STAT6 SH2 domain (unknown origin) assessed as inhibition constant by FP assay.

Consider `CC(C)(C)[C@H](NC(=O)c1cc2cc(C(F)(F)P(=O)(O)O)ccc2s1)C(=O)N1CCC[C@H]1C(=O)N(CCC(=O)NCCCC#Cc1cccc2c1CN(C1CCC(=O)NC1=O)C2=O)c1ccc2scnc2c1` (some centres not stated), for which the Ki (as a rule, a measure of affinity in units of concentration, obtained from inhibition or displacement) in assay [1] is 1 µM; in assay [3], 0.4 µM. In addition, it took 0.45 µM to reach half-maximal degradation in assay [2] (DC50).

For the compound `CN(CCCC#Cc1cccc2c1CN(C1CCC(=O)NC1=O)C2=O)C(=O)CCN(C(=O)[C@@H]1CCCN1C(=O)[C@@H](NC(=O)c1cc2cc(C(F)(F)P(=O)(O)O)ccc2s1)C(C)(C)C)c1ccc(Br)cc1` (some centres not stated), the Emax (usually the size of the effect at its maximum, as opposed to the concentration needed) in assay [4] is greater than 95%. For the same compound, the DC50 (usually the midpoint of the concentration-degradation curve) in assay [5] (read-out: DC50) was greater than 5 µM; in assay [2] it was 0.19 µM.

In the case of `CN(C)C(=O)CCN(C(=O)[C@@H]1CCCN1C(=O)[C@H](Cc1ccc(C(F)(F)F)cc1)NC(=O)c1cc2cc(C(F)(F)P(=O)(O)O)ccc2s1)c1ccc(-c2nccs2)cc1`, the Ki in assay [1] stood at 2.3 µM; in assay [6] it was 4 µM; in assay [3] it was 2.5 µM.

Regarding `CN(C)C(=O)CCN(C(=O)[C@@H]1CCCN1C(=O)[C@@H](NC(=O)c1cc2cc(C(F)(F)P(=O)(O)O)ccc2s1)C(C)(C)C)c1ccc(-c2ccccc2)cc1`, the results for the Ki in assay [1], in assay [6] and in assay [3] were 3.4 µM, 2 µM and 5.2 µM, respectively.

For `CC(C)(C)[C@H](NC(=O)c1cc2cc(C(F)(F)P(=O)(O)O)ccc2s1)C(=O)N1CCC[C@H]1C(=O)N(CCC(=O)N1CC(CCC#Cc2cccc3c2CN(C2CCC(=O)NC2=O)C3=O)C1)c1ccc(Br)cc1` (some centres not stated), the DC50 entry in assay [5] is “Not Active”; in assay [2] it was 4.2 µM.

Regarding `CN(C)C(=O)CCN(C(=O)[C@@H]1CCCN1C(=O)[C@H](Cc1ccc(F)cc1)NC(=O)c1cc2cc(C(F)(F)P(=O)(O)O)ccc2s1)c1ccc(-c2nccs2)cc1`, the Ki in assay [1] came to 1 µM; in assay [6] it was 3.5 µM; in assay [3], 1.7 µM.

For the compound `CC(C)(C)[C@H](NC(=O)c1cc2cc(C(F)(F)P(=O)(O)O)ccc2s1)C(=O)N1CCC[C@H]1C(=O)N(CCC(=O)NCCCCCCC#Cc1cccc2c1CN(C1CCC(=O)NC1=O)C2=O)c1ccc(Br)cc1` (some centres not stated), the results for the DC50 in assay [5] (read-out: DC50) and in assay [2] were greater than 5 µM and 1.4 µM, respectively.

Consider `CC(C)(C)[C@H](NC(=O)c1cc2cc(C(F)(F)P(=O)(O)O)ccc2s1)C(=O)N1CCC[C@H]1C(=O)N(CCC(=O)NCCCCCC#Cc1cccc2c1CN(C1CCC(=O)NC1=O)C2=O)c1ccc(Br)cc1` (some centres not stated), for which the DC50 is greater than 5 µM in assay [5] (read-out: DC50) and 1.1 µM in assay [2].

Take `CN(C)C(=O)CCN(C(=O)[C@@H]1CCCN1C(=O)[C@H](CCc1ccccc1)NC(=O)c1cc2cc(C(F)(F)P(=O)(O)O)ccc2s1)c1ccc(-c2nccs2)cc1`: the Ki in assay [1] is 1.4 µM; in assay [6], 1.5 µM; in assay [3] it was 1.6 µM.

As to `CN(C)C(=O)CCN(C(=O)[C@@H]1CCCN1C(=O)[C@@H](NC(=O)c1cc2cc(C(F)(F)P(=O)(O)O)ccc2s1)C(C)(C)C)c1cccc(-c2nccs2)c1`, the Ki in assay [1] is 4.9 µM; in assay [6], 1.9 µM; in assay [3], 6.1 µM.

On to `CN(C)C(=O)CCN(C(=O)[C@@H]1CCCN1C(=O)[C@@H](NC(=O)c1cc2cc(C(F)(F)P(=O)(O)O)ccc2s1)C1CC1)c1ccc(-c2nccs2)cc1`, for which the Ki in assay [1] turned out to be 2.9 µM; in assay [6], 1.3 µM; in assay [3], 3.1 µM.

As for `CC(C)(C)[C@H](NC(=O)c1cc2cc(C(F)(F)P(=O)(O)O)ccc2s1)C(=O)N1CCC[C@H]1C(=O)N(CCC(=O)N1CCC(Nc2cccc3c2CN(C2CCC(=O)NC2=O)C3=O)CC1)c1ccc(Br)cc1` (some centres not stated), the DC50 result in assay [5] was “Not Active”; in assay [2], greater than 5 µM.

In the case of `CN(C)C(=O)CCN(C(=O)[C@@H]1CCCN1C(=O)[C@@H](NC(=O)c1cc2cc(C(F)(F)P(=O)(O)O)ccc2s1)c1ccccc1)c1ccc(-c2nccs2)cc1`, the Ki is 3.2 µM in assay [1], 2.5 µM in assay [6] and 4 µM in assay [3].

As to `CC(C)(C)[C@H](NC(=O)c1cc2cc(C(F)(F)P(=O)(O)O)ccc2s1)C(=O)N1CCC[C@H]1C(=O)N(CCC(=O)NCCC#Cc1cccc2c1CN(C1CCC(=O)NC1=O)C2=O)c1ccc(Br)cc1` (some centres not stated), the DC50 in assay [5] (read-out: DC50) and in assay [2] was greater than 5 µM throughout.

For the compound `CC(C)(C)[C@H](NC(=O)c1cc2cc(C(F)(F)P(=O)(O)O)ccc2s1)C(=O)N1CCC[C@H]1C(=O)N(CCC(=O)N1CC(CC#Cc2cccc3c2CN(C2CCC(=O)NC2=O)C3=O)C1)c1ccc(Br)cc1` (some centres not stated), the results for the DC50 entry in assay [5] and in assay [2] were “Not Active” and greater than 5 µM, respectively.

With `CN(C)C(=O)CCN(C(=O)[C@@H]1CCCN1C(=O)[C@@H](NC(=O)c1cc2cc(C(F)(F)P(=O)(O)O)ccc2s1)C(C)(C)C)c1ccc2ccccc2c1`, the figures for the Ki in assay [1], in assay [6] and in assay [3] were 1.2 µM, 0.2 µM and 1 µM, respectively.

In the case of `CC(C)(C)[C@H](NC(=O)c1cc2cc(C(F)(F)P(=O)(O)O)ccc2s1)C(=O)N1CCC[C@H]1C(=O)N(CCC(=O)NCCCCC#Cc1cccc2c1CN(C1CCC(=O)NC1=O)C2=O)c1ccc(Br)cc1` (some centres not stated), the figures for the DC50 in assay [5] (read-out: DC50) and in assay [2] were greater than 5 µM and 0.5 µM, respectively.

Consider `CC(C)(C)[C@H](NC(=O)c1cc2cc(C(F)(F)P(=O)(O)O)ccc2s1)C(=O)N1CCC[C@H]1C(=O)N(CCC(=O)N1CCC(C#Cc2cccc3c2CN(C2CCC(=O)NC2=O)C3=O)CC1)c1ccc(Br)cc1` (some centres not stated), for which the DC50 entry in assay [5] was “Not Active”; in assay [2] it was greater than 5 µM.

As to `CC(C)(C)[C@H](NC(=O)c1cc2cc(C(F)(F)P(=O)(O)O)ccc2s1)C(=O)N1CCC[C@H]1C(=O)N(CCC(=O)NCCCC#Cc1cccc2c1CN(C1CCC(=O)NC1=O)C2=O)c1ccc2sccc2c1` (some centres not stated), the Ki in assay [1] came to 1.2 µM; in assay [3], 0.8 µM. The compound also registered a DC50 in assay [2] of 0.18 µM.

Consider `CN(C)C(=O)CCN(C(=O)[C@@H]1CCCN1C(=O)[C@H](Cc1ccc(Br)cc1)NC(=O)c1cc2cc(C(F)(F)P(=O)(O)O)ccc2s1)c1ccc(-c2nccs2)cc1`, for which the Ki stood at 1.2 µM in assay [1], 3 µM in assay [6] and 1.6 µM in assay [3].

These data come from ChEMBL document CHEMBL5380794, “Discovery of a Potent and Selective STAT5 PROTAC Degrader with Strong Antitumor Activity In Vivo in Acute Myeloid Leukemia” (J Med Chem, 2023).
